Among the data in ChEMBL document CHEMBL1777763, “Discovery of a nortropanol derivative as a potent and orally active GPR119 agonist for type 2 diabetes” (Bioorg Med Chem Lett, 2011) are EC50 and Activity values, retold here.

SMILES strings stand for the structures.

The target of assay [1] is T1, Glucose-dependent insulinotropic receptor (Mus musculus, UniProt Q7TQP3).
T1 sequence (Q7TQP3 whole entry): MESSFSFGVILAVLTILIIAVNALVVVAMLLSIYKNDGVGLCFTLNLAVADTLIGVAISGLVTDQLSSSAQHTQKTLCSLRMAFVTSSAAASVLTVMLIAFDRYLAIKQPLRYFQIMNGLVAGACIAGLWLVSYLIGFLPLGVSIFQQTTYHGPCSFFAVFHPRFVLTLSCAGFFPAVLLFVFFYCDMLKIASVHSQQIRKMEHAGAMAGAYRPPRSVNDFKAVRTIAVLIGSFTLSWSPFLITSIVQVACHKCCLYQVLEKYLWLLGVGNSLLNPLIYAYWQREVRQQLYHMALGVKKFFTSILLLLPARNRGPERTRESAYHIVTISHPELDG
Put plainly: Agonist activity at mouse GPR119 expressed in HEK293 cells assessed as stimulation of cMAP level by cell-based cAMP assay. The class given is functional. Background: cAMP levels reflect the balance of adenylyl cyclase and phosphodiesterase activity.

The target of assay [2] is T2, Glucose-dependent insulinotropic receptor (Mus musculus) (UniProt Q7TQP3).
T2 sequence (whole entry): T1 sequence (Q7TQP3 whole entry)
The experiment in a line: Agonist activity at mouse GPR119 expressed in HEK293 cells assessed as maximal stimulation of cMAP level by cell-based cAMP assay relative to 21. In kind it is functional.

One may read the EC50 as the concentration giving half of the maximal effect. `Cc1c(Nc2ccc(S(C)(=O)=O)cc2F)ncnc1O[C@H]1CC2CC[C@@H](C1)N2S(=O)(=O)C1CC1` (single isomer, unassigned): the EC50 in assay [1] turned out to be 640 nM. The Activity in assay [2] amounted to 88%.
With `Cc1ncccc1Oc1ncnc(O[C@@H]2CC3CC[C@@H](C2)N3C(=O)OC(C)(C)C)c1C` (single isomer, unassigned; 20f), the EC50 in assay [1] came to 300 nM. Besides, in assay [2], the Activity came to 20%.
Regarding `Cc1ncccc1Oc1ncnc(O[C@H]2CC3CC[C@@H](C2)N3S(=O)(=O)c2ccc(F)cc2)c1C` (single isomer, unassigned), the EC50 in assay [1] is 350 nM. Moreover, the Activity in assay [2] turned out to be 78%.
The corresponding values for `CCCCS(=O)(=O)N1C2CC[C@H]1C[C@@H](Oc1ncnc(Oc3cccnc3C)c1C)C2` (single isomer, unassigned) are 26 nM and 29%.
As for `Cc1ncccc1Oc1ncnc(O[C@H]2CC3CC[C@@H](C2)N3S(=O)(=O)CC(F)(F)F)c1C` (single isomer, unassigned), the EC50 in assay [1] is 660 nM. Also, in assay [2], the Activity was determined as 62%.
The corresponding values for `Cc1ncccc1Oc1ncnc(O[C@H]2C[C@@H]3CC(F)[C@@H](C2)N3S(=O)(=O)C2CC2)c1C` (stereo partly drawn) are 710 nM and 74%.
On to `Cc1c(Nc2ccccc2C#N)ncnc1O[C@H]1CC2CC[C@@H](C1)N2S(=O)(=O)C1CC1` (single isomer, unassigned), for which the EC50 in assay [1] is 180 nM. Also, the Activity in assay [2] was determined as 80%.
With `Cc1ncccc1Oc1ncnc(O[C@H]2CC3CC[C@@H](C2)N3C(=O)OCC2CC2)c1C` (single isomer, unassigned), the EC50 in assay [1] was determined as 7570 nM. In assay [2], the Activity is 33%.
The corresponding values for `Cc1c(Oc2ccccc2Cl)ncnc1O[C@H]1CC2CC[C@@H](C1)N2S(=O)(=O)C1CC1` (single isomer, unassigned) are 82 nM and 58%.
In the same order, the values of `Cc1c(Nc2ccc(F)cc2C#N)ncnc1O[C@H]1CC2CC[C@@H](C1)N2S(=O)(=O)C1CC1` (single isomer, unassigned) are 820 nM and 110%.
For `Cc1ncccc1Oc1ncnc(O[C@H]2C[C@@H]3CC(F)(F)[C@@H](C2)N3S(=O)(=O)C2CC2)c1C`, the EC50 in assay [1] is 220 nM. Further, the Activity in assay [2] is 52%.
As to `Cc1ncccc1Oc1ncnc(O[C@H]2C[C@H]3CC[C@@H](C2)N3C(=O)OC(C)C2CC2)c1C` (stereo partly drawn), in assay [1], the EC50 came to 59 nM. For the same compound, the Activity in assay [2] was found to be 31%.
In the same order, the values of `Cc1c(Oc2ccc(Cl)cc2C#N)ncnc1O[C@H]1CC2CC[C@@H](C1)N2S(=O)(=O)C1CC1` (single isomer, unassigned) are 290 nM and 44%.
In the same order, the values of `Cc1ncccc1Oc1ncnc(O[C@H]2CC3CC[C@@H](C2)N3S(=O)(=O)CCC(F)(F)F)c1C` (single isomer, unassigned) are 250 nM and 62%.
For `CCOC(=O)N1C2CC[C@H]1C[C@@H](Oc1ncnc(Oc3cccnc3C)c1C)C2` (single isomer, unassigned), the EC50 in assay [1] is 324 nM. In assay [2], the Activity is 25%.
`Cc1ncccc1Oc1ncnc(O[C@H]2CC3C=C[C@@H](C2)N3C(=O)OC(C)C)c1C` (single isomer, unassigned): the EC50 in assay [1] is 52 nM. Further, the Activity in assay [2] was determined as 48%.
In the same order, the values of `Cc1ncccc1Oc1ncnc(O[C@H]2CC3CC[C@@H](C2)N3S(=O)(=O)c2ccc(Cl)s2)c1C` (single isomer, unassigned) are 145 nM and 77%.
Regarding `CCCS(=O)(=O)N1C2CC[C@H]1C[C@@H](Oc1ncnc(Oc3cccnc3C)c1C)C2` (single isomer, unassigned), the EC50 in assay [1] was 53 nM. In addition, in assay [2], the Activity was determined as 49%.
In the same order, the values of `Cc1ncccc1Oc1ncnc(O[C@H]2CC3CC[C@@H](C2)N3C(=O)OCC(F)(F)F)c1C` (single isomer, unassigned) are 10400 nM and 20%.
